Several values for one entry are separate records, joined by “and”; a condition that tells them apart may be missing. Equal entries are not always repeated.
Assay: Phase 1a single ascending dose study: UV-4 plasma concentrations and PK parameters (LC-MS/MS, noncompartmental)
Assay type: in vivo
Details: human plasma
Description: UV-4 ((2R,3R,4R,5S)-2-(hydroxymethyl)-1-(9-methoxynonyl)piperidine-3,4,5-triol, also called N-(9’-methoxynonyl)-1-deoxynojirimycin, or MON-DNJ) hydrochloride was evaluated in a first-in-human, randomized, single-center, double-blind, placebo-controlled, parallel group, single ascending dose Phase 1a clinical trial in healthy subjects (Figs 1 and 2, ClinicalTrials.gov Identifier NCT02061358 https://clinicaltrials.gov/ct2/show/NCT02061358). The primary objective was to determine the safety and tolerability of a single-ascending oral dose of UV-4 hydrochloride (Fig 3). […] The secondary objective was to determine PK parameters describing absorption and elimination of UV-4 following a single oral dose of UV-4 hydrochloride. Eight cohorts of eight subjects each were enrolled and completed the study. In each cohort, six subjects received UV-4 as the hydrochloride; two received placebo. Subjects were screened against study eligibility criteria up to four weeks (Days -28 to -2) before admission to the clinic (Day -1). Dosing was performed on an inpatient basis. Subjects remained in clinic for 48 hours post-dosing for PK sample collection and safety assessments and were discharged from the clinic on Day 3. Subjects returned to the clinic on Day 4 for additional safety assessments, then again on Day 9 ± 1 for a final follow-up visit.
Eligible subjects were healthy males and females, age 18–45 years, with a body mass index between 18 and 30 kg/m^2 inclusive and a minimum body weight of 60 kg. Subjects were considered healthy based on medical history, physical exam, vital signs, 12-lead electrocardiogram (ECG), clinical laboratory tests (hematology, blood chemistry, urinalysis), viral serology, and drug and alcohol screening. Male and female subjects of childbearing potential were required to use adequate contraception over the course of the clinical trial. […] Only subjects who met all inclusion and none of the exclusion criteria prior to administration of the investigational product were enrolled into the study (no exemptions were granted). A total of 64 subjects were enrolled (eight cohorts of eight subjects each). In each of the eight cohorts, six subjects were randomized to receive a single dose of UV-4 (3 to 1000 mg, depending on cohort) as the hydrochloride salt, and two subjects to receive placebo. Cohort size of six active subjects was based on analysis that increasing cohort size above six in a first-in-human study gains little in the ability to observe a drug induced event, and results in observing more events that are not related to study drug. Two of the eight subjects in each cohort (sentinel subjects; one active and one placebo) received their doses at least 48 h before the remaining subjects in each cohort.
On each day of use, bulk drug substance (UV-4B for solubilization, SAI Life Sciences Ltd. Telangana, India) was removed from a single-use container, weighed at the study center, and solubilized in 20 mL sterile water for injection (SWFI) (Hospira Inc. Illinois, United States of America). Weight of solid drug substance was converted to dose of UV-4 by applying purity and salt correction factor per pharmacy manual when preparing the dosing solution. UV-4B solution was administered orally with 10 mL of taste-masking agent, OraSweet-SF (Paddock Laboratories LLC, Minneapolis, United States of America) in a total volume of 30 mL, to assist in maintaining study blinding. Placebo was SWFI (20 mL) plus OraSweet-SF (10 mL). Concentrations and doses were calculated and expressed as the active free base form, UV-4. This methodology is consistent with USP<1121>, which recommends that the strength of a drug product or preparation is expressed in terms of the active moiety. Following consumption of active or placebo solution, the dosing container was rinsed with 50 mL of tap water also consumed by subjects. […]

COCCCCCCCCCN1C[C@H](O)[C@@H](O)[C@H](O)[C@H]1CO [UV4]
CONCENTRATION UV4 (Cohort 2, nominal day 1, nominal hour 0): <LLOQ (0.500) ng/mL
CONCENTRATION UV4 (Cohort 3, nominal day 1, nominal hour 0): <LLOQ (0.500) ng/mL
CONCENTRATION UV4 (Cohort 4, nominal day 1, nominal hour 0): <LLOQ (0.500) ng/mL
CONCENTRATION UV4 (Cohort 4, nominal day 1, nominal hour 0, individual subjects): <LLOQ (0.500) ng/mL and 0.569 ng/mL and 1.02 ng/mL
CONCENTRATION UV4 (Cohort 4, nominal day 1, nominal hour 0, subjects with all post-dose samples <LLOQ (treatment arm not given)): 0.657 ng/mL
CONCENTRATION UV4 (Cohort 4, nominal day 1, nominal hour 0.5): <LLOQ (0.500) ng/mL
CONCENTRATION UV4 (Cohort 4, nominal day 1, nominal hour 0.5, individual subjects): 439 ng/mL and 598 ng/mL and 942 ng/mL and 1250 ng/mL and 160 ng/mL
CONCENTRATION UV4 (Cohort 4, nominal day 1, nominal hour 0.5, subjects with all post-dose samples <LLOQ (treatment arm not given)): <LLOQ (0.500) ng/mL
CONCENTRATION UV4 (Cohort 4, nominal day 1, nominal hour 1): <LLOQ (0.500) ng/mL
CONCENTRATION UV4 (Cohort 4, nominal day 1, nominal hour 1, individual subjects): 589 ng/mL and 571 ng/mL and 858 ng/mL and 762 ng/mL and 642 ng/mL
CONCENTRATION UV4 (Cohort 4, nominal day 1, nominal hour 1, subjects with all post-dose samples <LLOQ (treatment arm not given)): <LLOQ (0.500) ng/mL
CONCENTRATION UV4 (Cohort 4, nominal day 1, nominal hour 1.5): <LLOQ (0.500) ng/mL
CONCENTRATION UV4 (Cohort 4, nominal day 1, nominal hour 1.5, individual subjects): 754 ng/mL and 487 ng/mL and 860 ng/mL and 621 ng/mL and 699 ng/mL
CONCENTRATION UV4 (Cohort 4, nominal day 1, nominal hour 1.5, subjects with all post-dose samples <LLOQ (treatment arm not given)): <LLOQ (0.500) ng/mL
CONCENTRATION UV4 (Cohort 4, nominal day 1, nominal hour 2): <LLOQ (0.500) ng/mL
CONCENTRATION UV4 (Cohort 4, nominal day 1, nominal hour 2, individual subjects): 583 ng/mL and 406 ng/mL and 636 ng/mL and 479 ng/mL and 610 ng/mL
CONCENTRATION UV4 (Cohort 4, nominal day 1, nominal hour 2, subjects with all post-dose samples <LLOQ (treatment arm not given)): <LLOQ (0.500) ng/mL
CONCENTRATION UV4 (Cohort 4, nominal day 1, nominal hour 2.5): <LLOQ (0.500) ng/mL
CONCENTRATION UV4 (Cohort 4, nominal day 1, nominal hour 2.5, individual subjects): 516 ng/mL and 439 ng/mL and 447 ng/mL and 365 ng/mL and 519 ng/mL
CONCENTRATION UV4 (Cohort 4, nominal day 1, nominal hour 2.5, subjects with all post-dose samples <LLOQ (treatment arm not given)): <LLOQ (0.500) ng/mL
CONCENTRATION UV4 (Cohort 4, nominal day 1, nominal hour 3): <LLOQ (0.500) ng/mL
CONCENTRATION UV4 (Cohort 4, nominal day 1, nominal hour 3, individual subjects): 495 ng/mL and 428 ng/mL and 393 ng/mL and 327 ng/mL and 437 ng/mL
CONCENTRATION UV4 (Cohort 4, nominal day 1, nominal hour 3, subjects with all post-dose samples <LLOQ (treatment arm not given)): <LLOQ (0.500) ng/mL
CONCENTRATION UV4 (Cohort 4, nominal day 1, nominal hour 4): <LLOQ (0.500) ng/mL
CONCENTRATION UV4 (Cohort 4, nominal day 1, nominal hour 4, individual subjects): 368 ng/mL and 298 ng/mL and 302 ng/mL and 236 ng/mL and 338 ng/mL
CONCENTRATION UV4 (Cohort 4, nominal day 1, nominal hour 4, subjects with all post-dose samples <LLOQ (treatment arm not given)): <LLOQ (0.500) ng/mL
CONCENTRATION UV4 (Cohort 4, nominal day 1, nominal hour 6): <LLOQ (0.500) ng/mL
CONCENTRATION UV4 (Cohort 4, nominal day 1, nominal hour 6, individual subjects): 184 ng/mL and 187 ng/mL and 216 ng/mL and 141 ng/mL and 189 ng/mL
CONCENTRATION UV4 (Cohort 4, nominal day 1, nominal hour 6, subjects with all post-dose samples <LLOQ (treatment arm not given)): <LLOQ (0.500) ng/mL
CONCENTRATION UV4 (Cohort 4, nominal day 1, nominal hour 9): <LLOQ (0.500) ng/mL
CONCENTRATION UV4 (Cohort 4, nominal day 1, nominal hour 9, individual subjects): 101 ng/mL and 118 ng/mL and 128 ng/mL and 70.4 ng/mL and 77.3 ng/mL
CONCENTRATION UV4 (Cohort 4, nominal day 1, nominal hour 9, subjects with all post-dose samples <LLOQ (treatment arm not given)): <LLOQ (0.500) ng/mL
CONCENTRATION UV4 (Cohort 4, nominal day 1, nominal hour 12): <LLOQ (0.500) ng/mL
CONCENTRATION UV4 (Cohort 4, nominal day 1, nominal hour 12, individual subjects): 54.3 ng/mL and 66.4 ng/mL and 79.7 ng/mL and 42.1 ng/mL and 37.6 ng/mL
CONCENTRATION UV4 (Cohort 4, nominal day 1, nominal hour 12, subjects with all post-dose samples <LLOQ (treatment arm not given)): <LLOQ (0.500) ng/mL
CONCENTRATION UV4 (Cohort 4, nominal day 1, nominal hour 18): <LLOQ (0.500) ng/mL
CONCENTRATION UV4 (Cohort 4, nominal day 1, nominal hour 18, individual subjects): 18.1 ng/mL and 34.0 ng/mL and 43.3 ng/mL and 16.6 ng/mL
CONCENTRATION UV4 (Cohort 4, nominal day 1, nominal hour 18, subjects with all post-dose samples <LLOQ (treatment arm not given)): <LLOQ (0.500) ng/mL
CONCENTRATION UV4 (Cohort 4, nominal day 2, nominal hour 24, individual subjects): 12.5 ng/mL and 26.6 ng/mL and 30.8 ng/mL and 10.2 ng/mL
CONCENTRATION UV4 (Cohort 4, nominal day 2, nominal hour 24, subjects with all post-dose samples <LLOQ (treatment arm not given)): <LLOQ (0.500) ng/mL
CONCENTRATION UV4 (Cohort 4, nominal day 2, nominal hour 36, individual subjects): 4.31 ng/mL and 11.5 ng/mL and 12.0 ng/mL and 3.22 ng/mL
CONCENTRATION UV4 (Cohort 4, nominal day 2, nominal hour 36, subjects with all post-dose samples <LLOQ (treatment arm not given)): <LLOQ (0.500) ng/mL
CONCENTRATION UV4 (Cohort 4, nominal day 3, nominal hour 48, individual subjects): 2.04 ng/mL and 4.82 ng/mL and 6.34 ng/mL and 1.52 ng/mL
CONCENTRATION UV4 (Cohort 4, nominal day 3, nominal hour 48, subjects with all post-dose samples <LLOQ (treatment arm not given)): <LLOQ (0.500) ng/mL

Source: PMC9387934, “Randomized single oral dose phase 1 study of safety, tolerability, and pharmacokinetics of Iminosugar UV-4 Hydrochloride (UV-4B) in healthy subjects” (PLoS Neglected Tropical Diseases, 2022)
